Like-named read-outs stand apart in the source and are kept apart here.
How the values were obtained:
[1] = system: ventricular myocyte membrane adenylyl cyclase; experiment: Adenylyl cyclase activity of ventricular myocyte membranes; assay type: biochemical, rat
Description: After a 3-4 hour incubation period, myocytes were harvested by placing the culture dishes on ice; aspirating and discarding the culture medium; scraping the attached cells into 1 ml of ice cold buffer (pH 7.4) containing 10 mM HEPES and 1 mM dithiothreitol (DTT); and transferring the mixture to a 40 ml centrifuge tube. The culture dishes were rinsed twice with buffer, and the rinses were added to the centrifuge tube. The myocytes were centrifuged at 45,000 x g for 45 minutes and the supernatant was discarded. The pellet was resuspended in 40 mM HEPES (pH 7.4) to yield 3.5-4 mg protein/ml and homogenized with a small clearance Dounce tissue grinder (8 strokes). The membranes were centrifugated as described above, resuspended (3-4 mg protein/ml) in 40 mM HEPES (pH 7.4), and assayed for adenylyl cyclase activity immediately or stored at -80° C. and assayed within 10 days.
The assay system used to measure adenylyl cyclase activity minimizes the formation of endogenous adenosine. The assay used was essentially as described by Romano et al. (supra). Myocyte membranes (15-25 μg protein) were incubated in 50 μl of a buffer containing 40 mM HEPES (pH 7.4), 5 mM MgCl2, 1 mM DTT, 5.5 mM KCl, 0.1 mM 2'-deoxy-cAMP (dcAMP), 0.1 mM 2'-deoxy ATP (dATP), 20 mM phosphoenolpyruvate, 2 units pyruvate kinase, 0.25 units adenosine deaminase, 1 mM ascorbic acid, 100 mM NaCl, 0.1 mM ethyleneglycol-bis (β-aminoethylether) N,N,N',N',-tetroaceticacid (EGTA), 10 μM guanosine 5'-triphosphate (GTP), and ~2×10^6 counts/minutes of [α-^32 P]dATP for 20 minutes at 30° C. The reaction was stopped by adding 40 μl of a solution containing 2% sodium dodecyl sulfate (SDS), 45 mM ATP, 1.3 mM cAMP, and [^3 H]dcAMP (~4000 count/min) and by boiling for 2 minutes.

rat ventricular myocytes = experiment: Contractile function of individual ventricular myocytes (line scan camera edge detection, paced at 0.5 Hz); assay type: cell-based; conditions: for +dL/dtmax, maximal rate of shortening / -dL/dtmax, maximal rate of relaxation / DS, duration of shortening / LC, maximum length change (shortening) with contraction / TPS, time-to-peak shortening / TR, time to 75% relaxation: mean ± SE; for inhibition at 0.2 µM / activation at 0.2 µM: ISO at 0.2 μM
Description: Primary cultures of adult rat ventricular myocytes were prepared essentially according to previously described methods (Romano et al., Am. J. Physiol. 257:H1088 (1989)). Two male Sprague-Dawley rats (Charles River, Wilmington, Mass. or Harlan, Indianapolis, Ind.) were decapitated, and the hearts were rapidly excised and constant pressure (70 cm H2) and nonrecirculated) perfused for 10 minutes through the aortas with filtered (0.45 μm membrane filter) perfusing solution (NaCl, 118 mM; glucose, 10 mM; NaHCO3 25 mM; KCl, 4.69 mM; MgSO4 1.18 mM; and KH2 PO4, 1.18 mM; (pH 7.4)), to which […] was added, at 37° C. After equilibration, the hearts were constant pressure perfused with fresh physiological saline ("PS") containing no added Ca^2+ until spontaneous contractions ceased (i.e., ~30 seconds). The hearts were then perfused for 4-10 minutes in a nonrecirculating manner with PS containing 0.73 mg/ml collagenase, 0.16 mg/ml hyaluronidase, 1 mg/ml recrystallized bovine serum albumin ("BSA") and 48.4 μM Ca^2+ at a rate of 3-4 ml/min/heart. Ventricles, free of atria, were removed from the perfusion system, cut into 8 pieces and placed in a 50 ml Erlenmeyer flask with 5 ml of PS containing 0.73 mg/ml collagenase, 0.16 mg/ml hyaluronidase, 2.5 mg/ml BSA, and 50 μM Ca^2+ (incubation solution). The flask was gently shaken (40 cycles/min) in a reciprocating water bath with continuous gassing (95% O2, 5% CO2) for 7 minutes at 37° C. The incubation solution was aspirated and this shaking procedure was repeated with fresh incubation solution 3-5 times depending on the likelihood that the tissue was ready to dissociate. After the final incubation period, the solution was aspirated and replaced with 10 ml of fresh incubation solution. The flask was then shaken rapidly (120 cycles/min) for 10 minutes with gassing to dissociate the myocytes. The flask contents were filtered through a 250 μm nylon mesh into a 50 ml polypropylene centrifuge tube, to which 40 ml of PS containing 5.95 mg/ml BSA and 99.7 μm Ca^2+ (wash solution) was gradually added.
The myocytes were allowed to settle for 15 minutes, and the upper two thirds of the wash solution was aspirated. Upon the addition of 30-35 ml of wash solution, this settling step was repeated. The wash solution was aspirated and the myocyte pellet was resuspended in 10 ml of minimum essential medium ("MEM"). The myocyte suspension was allowed to settle for 5 minutes and then brought to a final volume of 22 ml with MEM. Two milliliters of the myocyte suspension was seeded onto each of 60 mm culture dishes containing 2 ml of MEM.
The contractile function of individual myocytes was assessed by dispersing 50-100 cells in a 506 μl myocyte chamber (11×23×2 mm deep). The chamber (FIG. 1) was continuously suffused (850 μl/min) with fresh suffusion solution ("SS") in mM: 136.4 NaCl, 4.7 KCl, 1.0 CaCl2, 10 hydroxyethylpiperzine-ethanesulfonicacid (HEPES), 1.0 NaHCO3, 1.2 MgSO4, 1.2 KH2 PO4, 10 glucose, 0.6 ascorbate, 1.0 pyruvate) at 20° C. The chamber was mounted on an inverted microscope stage and contained platinum wire electrodes for initiating myocyte contraction at 0.5 Hz (voltage 10% above threshold for 5 msec duration).
The image of the myocyte was projected via an inverted microscope at 300× onto a line scan camera (Fairchild, Model 1600R) containing a linear array (1×3456) of photodiodes. When aligned with the longitudinal axis of the cell the camera detected the movement of the 2 ends of the myocyte upon contraction (shortening and relengthening). […] When the myocyte was transilluminated, both ends of the cell were easily discriminated. Myocyte length and length change with respect to time for a single contraction was measured by determining the pixels in which the appropriate transitions between light and dark occurred. The line scan camera was calibrated with a stage micrometer scaled in 10 μm divisions. The signals from the camera were directed to a Hewlett Packard computer (Model Vectra RS/20C). […]

[2] = Rattus norvegicus, Ventricular myocyte, read-out: increase in +dL/dtmax
[3] = Rattus norvegicus, Ventricular myocyte, read-out: increase in LC
[4] = Rattus norvegicus, Ventricular myocyte, read-out: increase in TPS
[5] = Rattus norvegicus, Ventricular myocyte, read-out: increase in TR
[6] = Table 4, CGS-21680 10^-4 M, cumulative dose-response, every 10 min, N = 6
[7] = Table 4, CGS-21680 10^-5 M, cumulative dose-response, every 10 min, N = 6
[8] = Table 4, CGS-21680 10^-6 M, cumulative dose-response, every 10 min, N = 9
[9] = Table 4, CGS-21680 10^-7 M, cumulative dose-response, every 10 min, N = 9
[10] = Table 4, CGS-21680 10^-8 M, cumulative dose-response, every 10 min, N = 8
[11] = Table 5, CGS-21680 and/or CGS-15943 at 10^-5 M, 10 min, N = 6
[12] = ISO at 0.1 μM in the presence of 1 μM PIA
[13] = Table 2, 0.2 μM ISO, 2 μM PIA, 0.2 μM DPCPX added sequentially every 8-10 min, maximum responses, N = 6

CCNC(=O)[C@H]1O[C@@H](n2cnc3c(N)nc(NCCc4ccc(CCC(=O)O)cc4)nc32)[C@H](O)[C@@H]1O [CGS-21680, 2-p-(2-carboxy-ethyl)phenethyl-amino-5'-N-ethylcarboxamido-adenosine]
increase in cyclase activity ([1]; CGS-21680 in the presence of 0.1 μM DPCPX): 49%
EC50 ([1]; in the presence of 0.1 μM DPCPX, read-out: EC50 for increase of adenylyl cyclase): 260 ± 80 nM
adenylyl cyclase response ([1]; no DPCPX, activating at 1-10 μM, reducing this activation at 0.1-1 mM): biphasic response
effect on -dL/dtmax (rat ventricular myocytes; CGS-21680, Table 4 concentrations): did not affect
contractility variables compared to 1 μM CGS-21680 in the absence of DPCPX (rat ventricular myocytes; CGS-21680 at 1 μM in the presence of 0.2 μM DPCPX): no further increases
EC50 (rat ventricular myocytes; Rattus norvegicus, Ventricular myocyte, read-out: EC50 for +dL/dtmax): 13.2 ± 5.6 nM
EC50 (rat ventricular myocytes; Rattus norvegicus, Ventricular myocyte, read-out: EC50 for DS): 26 ± 5.4 nM
EC50 (rat ventricular myocytes; Rattus norvegicus, Ventricular myocyte, read-out: EC50 for LC): 6.1 ± 2 nM
EC50 (rat ventricular myocytes; Rattus norvegicus, Ventricular myocyte, read-out: EC50 for TPS): 48.2 ± 6.7 nM
EC50 (rat ventricular myocytes; Rattus norvegicus, Ventricular myocyte, read-out: EC50 for TR): 28.9 ± 8.7 nM
activation at 0.1 µM (rat ventricular myocytes; [2]): 27%
activation at 0.1 µM (rat ventricular myocytes; Rattus norvegicus, Ventricular myocyte, read-out: increase in DS): 32%
activation at 0.1 µM (rat ventricular myocytes; [3]): 28%
activation at 0.01 µM (rat ventricular myocytes; [4]): 11%
activation at 0.1 µM (rat ventricular myocytes; [4]): 30%
activation at 0.01 µM (rat ventricular myocytes; [5]): 12%
activation at 0.1 µM (rat ventricular myocytes; [5]): 22%
+dL/dtmax, maximal rate of shortening (rat ventricular myocytes; [6]): 158 ± 14 μm/msec
-dL/dtmax, maximal rate of relaxation (rat ventricular myocytes; [6]): 108 ± 16 μm/msec
DS, duration of shortening (rat ventricular myocytes; [6]): 404 ± 17 ms
LC, maximum length change (shortening) with contraction (rat ventricular myocytes; [6]): 22 ± 2 μm
TPS, time-to-peak shortening (rat ventricular myocytes; [6]): 156 ± 3 ms
TR, time to 75% relaxation (rat ventricular myocytes; [6]): 322 ± 12 ms
+dL/dtmax, maximal rate of shortening (rat ventricular myocytes; [7]): 187 ± 13 μm/msec
-dL/dtmax, maximal rate of relaxation (rat ventricular myocytes; [7]): 127 ± 13 μm/msec
DS, duration of shortening (rat ventricular myocytes; [7]): 460 ± 18 ms
LC, maximum length change (shortening) with contraction (rat ventricular myocytes; [7]): 26 ± 3 μm
TPS, time-to-peak shortening (rat ventricular myocytes; [7]): 192 ± 4 ms
TR, time to 75% relaxation (rat ventricular myocytes; [7]): 397 ± 14 ms
+dL/dtmax, maximal rate of shortening (rat ventricular myocytes; [8]): 188 ± 11 μm/msec
-dL/dtmax, maximal rate of relaxation (rat ventricular myocytes; [8]): 121 ± 15 μm/msec
DS, duration of shortening (rat ventricular myocytes; [8]): 458 ± 12 ms
LC, maximum length change (shortening) with contraction (rat ventricular myocytes; [8]): 24 ± 2 μm
TPS, time-to-peak shortening (rat ventricular myocytes; [8]): 183 ± 5 ms
TR, time to 75% relaxation (rat ventricular myocytes; [8]): 390 ± 13 ms
+dL/dtmax, maximal rate of shortening (rat ventricular myocytes; [9]): 183 ± 14 μm/msec
-dL/dtmax, maximal rate of relaxation (rat ventricular myocytes; [9]): 126 ± 12 μm/msec
DS, duration of shortening (rat ventricular myocytes; [9]): 431 ± 14 ms
LC, maximum length change (shortening) with contraction (rat ventricular myocytes; [9]): 23 ± 2 μm
TPS, time-to-peak shortening (rat ventricular myocytes; [9]): 169 ± 3 ms
TR, time to 75% relaxation (rat ventricular myocytes; [9]): 361 ± 12 ms
+dL/dtmax, maximal rate of shortening (rat ventricular myocytes; [10]): 162 ± 13 μm/msec
-dL/dtmax, maximal rate of relaxation (rat ventricular myocytes; [10]): 125 ± 11 μm/msec
DS, duration of shortening (rat ventricular myocytes; [10]): 363 ± 15 ms
LC, maximum length change (shortening) with contraction (rat ventricular myocytes; [10]): 22 ± 2 μm
TPS, time-to-peak shortening (rat ventricular myocytes; [10]): 144 ± 4 ms
TR, time to 75% relaxation (rat ventricular myocytes; [10]): 334 ± 10 ms
+dL/dtmax, maximal rate of shortening (rat ventricular myocytes; [11]): 192 ± 11 μm/msec
-dL/dtmax, maximal rate of relaxation (rat ventricular myocytes; [11]): 122 ± 12 μm/msec
DS, duration of shortening (rat ventricular myocytes; [11]): 486 ± 15 ms
LC, maximum length change (shortening) with contraction (rat ventricular myocytes; [11]): 25 ± 2 μm
TPS, time-to-peak shortening (rat ventricular myocytes; [11]): 190 ± 4 ms
TR, time to 75% relaxation (rat ventricular myocytes; [11]): 392 ± 13 ms
EC50 (rat ventricular myocytes; read-out: EC50 for the contractile variables (length change, duration of shortening, time to peak shortening, time to 75% relaxation, +dL/dtmax), range over the five variables): 6 to 48 nM

CC(C)NCC(O)c1ccc(O)c(O)c1 (stereo not shown) [ISO, isoproterenol]
increase in adenylyl cyclase activity [1, 12]: 23%
increase in adenylyl cyclase activity ([1]; ISO at 0.1 μM, in the absence of PIA): 88%
ISO-induced increase in adenylyl cyclase activity ([1]; ISO at 0.1 μM, with PIA and DPCPX at 0.1 μM): 70%
decrease in TR (rat ventricular myocytes; [12]): 10%
increase in +dL/dtmax (rat ventricular myocytes; [12]): 70%
increase in -dL/dtmax (rat ventricular myocytes; [12]): 93%
increase in LC (rat ventricular myocytes; [12]): 44%
inhibition at 0.2 µM (rat ventricular myocytes; Rattus norvegicus, Ventricular myocyte, read-out: decrease in DS): 30%
inhibition at 0.2 µM (rat ventricular myocytes; Rattus norvegicus, Ventricular myocyte, read-out: decrease in TPS): 14%
inhibition at 0.2 µM (rat ventricular myocytes; Rattus norvegicus, Ventricular myocyte, read-out: decrease in TR): 39%
activation at 0.2 µM (rat ventricular myocytes; [2]): 63%
activation at 0.2 µM (rat ventricular myocytes; Rattus norvegicus, Ventricular myocyte, read-out: increase in -dL/dtmax): 100%
activation at 0.2 µM (rat ventricular myocytes; [3]): 61%
+dL/dtmax, maximal rate of shortening (rat ventricular myocytes; [13]): 260 ± 13 μm/msec
-dL/dtmax, maximal rate of relaxation (rat ventricular myocytes; [13]): 180 ± 17 μm/msec
DS, duration of shortening (rat ventricular myocytes; [13]): 263 ± 16 ms
LC, maximum length change (shortening) with contraction (rat ventricular myocytes; [13]): 29 ± 2 μm
TPS, time-to-peak shortening (rat ventricular myocytes; [13]): 103 ± 4 ms
TR, time to 75% relaxation (rat ventricular myocytes; [13]): 210 ± 8 ms
